Assay results from the supplement of paper PMC10307832.

Key:
Assay in all cases: relative viability (nuclei count vs DMSO), 5 days (fraction); higher = more cells survive
[1] = compound: O=C(CCCCCCC(=O)Nc1ccccc1)NO [Vorinostat] + C[C@@H](Oc1cc(-c2cnn(C3CCNCC3)c2)cnc1N)c1c(Cl)ccc(F)c1Cl [Crizotinib] (partner 1 µM)
Outline: (§1)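 Lung cancer cell lines in 1536-well plates were dosed by pin tool the day after seeding, either with one drug alone or with a fixed anchor-drug dose plus five library-drug doses (not always all listed) in √10 steps. After 5 days, cells were fixed and their nuclei stained in one step (final 0.05% Triton X-100, 1% formaldehyde, 1 ug/ml Hoechst), then counted on 4× images. Relative viability is the nuclei count in treated wells divided by that in vehicle wells. Values are medians of duplicate plates.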

[2] = compound: O=C(CCCCCCC(=O)Nc1ccccc1)NO [Vorinostat] + Nc1nc2[nH]cc(CCc3ccc(C(=O)N[C@@H](CCC(=O)O)C(=O)O)cc3)c2c(=O)[nH]1 [Pemetrexed] (partner 0.2 µM)
Outline: as §1

[3] = compound: O=C(CCCCCCC(=O)Nc1ccccc1)NO [Vorinostat] + Cc1cc(Nc2cc(N3CCN(C)CC3)nc(Sc3ccc(NC(=O)C4CC4)cc3)n2)n[nH]1 [Tozasertib] (partner 0.1 µM)
Outline: as §1

[4] = compound: O=C(CCCCCCC(=O)Nc1ccccc1)NO [Vorinostat] + NC(=O)Nc1cc(-c2cccc(F)c2)sc1C(=O)N[C@H]1CCCNC1 [AZD7762] (partner 0.2 µM)
Outline: as §1

[5] = compound: O=C(CCCCCCC(=O)Nc1ccccc1)NO [Vorinostat] + CC(=O)c1c(C)c2cnc(Nc3ccc(N4CCNCC4)cn3)nc2n(C2CCCC2)c1=O [Palbociclib] (partner 0.5 µM)
Outline: as §1

Row | Cell Line | relative viability ([1]; first compound 0.253 µM) | relative viability ([1]; first compound 0.8 µM) | relative viability ([1]; first compound 2.53 µM) | relative viability ([1]; first compound 8 µM) | relative viability ([2]; first compound 0.253 µM) | relative viability ([2]; first compound 0.8 µM) | relative viability ([2]; first compound 2.53 µM) | relative viability ([2]; first compound 8 µM) | relative viability ([3]; first compound 0.253 µM) | relative viability ([3]; first compound 0.8 µM) | relative viability ([3]; first compound 2.53 µM) | relative viability ([3]; first compound 8 µM) | relative viability ([4]; first compound 0.253 µM) | relative viability ([4]; first compound 0.8 µM) | relative viability ([4]; first compound 2.53 µM) | relative viability ([4]; first compound 8 µM) | relative viability ([5]; first compound 0.253 µM) | relative viability ([5]; first compound 0.8 µM) | relative viability ([5]; first compound 2.53 µM) | relative viability ([5]; first compound 8 µM)
1 | NCI-H650 | 0.716 | 0.503 | 0.155 | 0.165 | 0.953 | 0.918 | 0.287 | 0.11 | 0.686 | 0.421 | 0.154 | 0.136 | 0.606 | 0.737 | 0.235 | 0.165 | 0.338 | 0.319 | 0.159 | 0.118
2 | NCI-H1437 | 0.876 | 0.894 | 0.429 | 0.0993 | 0.308 | 0.3 | 0.187 | 0.151 | 0.371 | 0.338 | 0.18 | 0.104 | 1.23 | 0.9 | 0.426 | 0.197 | 0.303 | 0.265 | 0.172 | 0.124
3 | NCI-H1915 | 0.985 | 0.847 | 0.248 | 0.0881 | 0.531 | 0.494 | 0.371 | 0.102 | 0.426 | 0.267 | 0.118 | 0.104 | 0.692 | 0.673 | 0.377 | 0.102 | 0.563 | 0.436 | 0.167 | 0.0832
4 | HCC-44 | 0.728 | 0.783 | 0.224 | 0.0957 | 0.663 | 0.683 | 0.628 | 0.485 | 1.1 | 0.296 | 0.184 | 0.141 | 1.01 | 1.02 | 0.879 | 0.526 | 0.989 | 0.969 | 0.812 | 0.301
5 | NCI-H23 | 0.525 | 0.381 | 0.102 | 0.116 | 0.842 | 0.713 | 0.32 | 0.181 | 0.275 | 0.269 | 0.105 | 0.124 | 0.174 | 0.13 | 0.0979 | 0.0915 | 0.696 | 0.622 | 0.154 | 0.137
6 | NCI-H2126 | 0.961 | 1.01 | 0.538 | 0.203 | 0.776 | 0.666 | 0.419 | 0.208 | 0.731 | 0.444 | 0.212 | 0.171 | 0.999 | 0.989 | 0.774 | 0.208 | 0.396 | 0.367 | 0.314 | 0.194
7 | LOU-NH91 | 0.755 | 0.746 | 0.599 | 0.362 | 0.362 | 0.324 | 0.387 | 0.351 | 0.615 | 0.481 | 0.36 | 0.295 | 0.757 | 0.739 | 0.548 | 0.414 | 0.533 | 0.515 | 0.512 | 0.384
8 | RERF-LC-KJ | 0.813 | 0.744 | 0.448 | 0.156 | 0.472 | 0.39 | 0.333 | 0.212 | 0.442 | 0.318 | 0.262 | 0.213 | 1.06 | 0.977 | 0.379 | 0.211 | 1.09 | 0.929 | 0.333 | 0.211
9 | NCI-H2347 | 0.793 | 0.715 | 0.379 | 0.283 | 0.427 | 0.41 | 0.416 | 0.299 | 0.66 | 0.432 | 0.244 | 0.203 | 0.595 | 0.696 | 0.456 | 0.226 | 0.405 | 0.371 | 0.362 | 0.242
10 | ChaGo-K-1 | 1.23 | 0.98 | 0.408 | 0.261 | 0.254 | 0.26 | 0.254 | 0.218 | 0.221 | 0.213 | 0.191 | 0.164 | 0.862 | 0.867 | 0.567 | 0.173 | 0.943 | 0.874 | 0.529 | 0.182
11 | NCI-H1993 | 0.836 | 0.932 | 0.531 | 0.653 | 0.594 | 0.492 | 0.503 | 0.344 | 0.633 | 0.608 | 0.489 | 0.457 | 0.817 | 0.672 | 0.384 | 0.312 | 0.715 | 0.775 | 0.499 | 0.362
